According to BindingDB's records for doi:10.2174/1568007033482805 (University of Sydney, 2003):

Target: T1, Gamma-aminobutyric acid receptor subunit alpha-3 (Homo sapiens, UniProt P34903)
T1 sequence (P34903 whole entry): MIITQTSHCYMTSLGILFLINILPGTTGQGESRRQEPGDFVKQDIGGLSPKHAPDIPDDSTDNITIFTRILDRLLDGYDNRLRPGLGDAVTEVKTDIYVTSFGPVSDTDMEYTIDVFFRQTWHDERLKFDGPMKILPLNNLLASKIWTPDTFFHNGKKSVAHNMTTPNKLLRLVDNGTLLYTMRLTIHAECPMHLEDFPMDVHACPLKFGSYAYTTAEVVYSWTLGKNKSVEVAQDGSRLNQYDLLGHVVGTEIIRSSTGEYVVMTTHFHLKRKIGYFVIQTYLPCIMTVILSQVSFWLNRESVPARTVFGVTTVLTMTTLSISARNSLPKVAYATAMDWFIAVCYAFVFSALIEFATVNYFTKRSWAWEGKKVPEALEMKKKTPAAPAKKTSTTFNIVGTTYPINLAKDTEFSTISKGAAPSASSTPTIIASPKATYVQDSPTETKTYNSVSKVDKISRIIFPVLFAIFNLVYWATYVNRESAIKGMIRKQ

SMILES | Ki [µM]
O=c1o[nH]c2c1CCNC2 [NSC_130546] | 7.9
O=c1[nH][nH]c2c1CCNC2 [THIP, Aza-] | > 10
